By IC50 is commonly meant the concentration that inhibits the measured activity by half.

The subject of experiment [1] is KO-52 cells. Nature of the experiment: Proliferation assay (spheroid growth, 8 days), KO-52 control cell line. The settings on record: Homo sapiens, […], read-out: spheroid assay_OneTime KO-52 IC50. Type of experiment: cell-based, human. In short, it runs like this:
(§1)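 IC50 values derive from day-8 spheroid confluence, normalized between DMSO-treated wells and the highest dose of a reference compound, fitted with a variable slope. Cells grew 8 days at 37° C under a compound concentration series in 0.3% DMSO.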

In experiment [2] the test system is MOLM14 cells. Nature of the experiment: Proliferation assay (spheroid growth, 8 days), MOLM14.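 Note: spheroid size read as confluence by live-cell imaging, compounds added at a range of concentrations with 0.3% DMSO, DMSO-treated wells = 0%, highest reference dose = low control.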 Format: cell-based, human. The settings on record: Homo sapiens, MOLM-14, […], MOLM14, 8 days; read-out: spheroid assay_OneTime MOLM14 IC50.
For experiment [3], the system named is MEIS1 mRNA. Briefly: MEIS1 mRNA expression assay (Quantigene Singleplex) in MOLM14 cells.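 Note: MEIS1 transcript levels read by probe hybridization and normalized to RPL28 mRNA, with IC50 fitted to fold changes across a rising compound concentration series.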 Format: cell-based, human. The settings on record: Homo sapiens, MOLM-14, 48 h, 48 hours incubation.
Experiment [4] has as its system OCI-AML3 cells. Briefly: Proliferation assay (spheroid growth, 8 days), OCI-AML3. Format: cell-based, human. The following applies: Homo sapiens, OCI-AML-3, […], OCI-AML3, 8 days. The gist of the method: as §1
Experiment [5] deals with menin/MLL (terbium chelate-labeled menin, FITC-MBM1 peptide) (Homo sapiens (Human), UniProt O00255). Briefly: Menin/MLL homogenous time-resolved fluorescence (HTRF) assay.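 Note: IC50 from percent inhibition of HTRF signal, normalized between wells without competitor and wells with a saturating competitor that displaces FITC-MBM1 from His-tagged menin.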 Format: binding. The following applies: HTRF-30 min incubation IC50, 30 min incubation. (In TR-FRET formats the signal depends on donor and acceptor labels being close together.)

Where a name gives a salt, the structure may show the parent alone.

Sequence of menin/MLL (terbium chelate-labeled menin, FITC-MBM1 peptide) (O00255 other isoform, or with tags, fused parts or gaps): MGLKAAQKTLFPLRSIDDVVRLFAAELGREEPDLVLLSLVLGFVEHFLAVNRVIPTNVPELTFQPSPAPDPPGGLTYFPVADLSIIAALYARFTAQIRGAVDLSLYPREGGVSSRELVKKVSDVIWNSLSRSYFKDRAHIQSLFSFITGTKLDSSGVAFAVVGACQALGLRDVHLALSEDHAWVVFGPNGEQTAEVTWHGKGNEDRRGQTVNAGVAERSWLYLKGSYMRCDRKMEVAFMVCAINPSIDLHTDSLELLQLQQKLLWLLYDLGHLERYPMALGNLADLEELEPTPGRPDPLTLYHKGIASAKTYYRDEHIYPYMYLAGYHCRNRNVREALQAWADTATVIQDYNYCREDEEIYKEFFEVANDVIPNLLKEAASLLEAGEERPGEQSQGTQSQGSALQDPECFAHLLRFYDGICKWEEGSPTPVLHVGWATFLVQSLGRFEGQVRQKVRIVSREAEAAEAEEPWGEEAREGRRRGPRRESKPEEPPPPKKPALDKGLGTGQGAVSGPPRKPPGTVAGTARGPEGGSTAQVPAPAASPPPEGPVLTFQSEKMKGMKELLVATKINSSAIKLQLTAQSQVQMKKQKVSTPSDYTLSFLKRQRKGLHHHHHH

As to `CCN(C(=O)c1cc(F)ccc1Oc1nncnc1N1CCC2(C1)CN([C@H](CCCN(C)C[C@H](C)C(=O)N(C)C)C(C)C)C2)C(C)C` (single isomer, unassigned) [Compound 189, 2-((5-(2-((R)-6-(((*S)-3-(dimethylamino)-2-methyl-3-oxopropyl)(methyl)amino)-2-methylhexan-3-yl)-2,6-diazaspiro[3.4]octan-6-yl)-1,2,4-triazin-6-yl)oxy)-N-ethyl-5-fluoro-N-isopropylbenzamide fumarate], the IC50 in experiment [1] is greater than 15 µM; in experiment [2], 30 nM; in experiment [3] it was 19 nM; in experiment [4], 190 nM; in experiment [5], 0.22 nM.
Taken in the same sequence, the figures for `CCN(C(=O)c1cc(F)ccc1Oc1nncnc1N1CCC2(C1)CN([C@H](CCCNC(=O)NC)C(C)C)C2)C(C)C` [Compound 8, (R)-N-ethyl-5-fluoro-N-isopropyl-2-((5-(2-(2-methyl-6-(3-methylureido)hexan-3-yl)-2,6-diazaspiro[3.4]octan-6-yl)-1,2,4-triazin-6-yl)oxy)benzamide] were greater than 15 µM, 1020 nM, roughly 650 nM, 2150 nM and 0.43 nM.
For `CCN(CC)C[C@H](O)C[C@H](C(C)C)N1CC2(CCN(c3ncnnc3Oc3ccc(F)cc3C(=O)N(CC)C(C)C)C2)C1` (single isomer, unassigned) [Compound 334, 2-((5-(2-((3*R,5*R)-6-(diethylamino)-5-hydroxy-2-methylhexan-3-yl)-2,6-diazaspiro[3.4]octan-6-yl)-1,2,4-triazin-6-yl)oxy)-N-ethyl-5-fluoro-N-isopropylbenzamide fumarate], in that order: greater than 15 µM, 12 nM, 11 nM, 130 nM and 0.079 nM.
Taken in the same sequence, the figures for `CCN(C(=O)c1cc(F)ccc1Oc1nncnc1N1CCC2(C1)CN([C@H](CCNCCC(N)=O)C(C)C)C2)C(C)C` (single isomer, unassigned) [Compound 278, (*R)-2-((5-(2-(1-((3-amino-3-oxopropyl)amino)-4-methylpentan-3-yl)-2,6-diazaspiro[3.4]octan-6-yl)-1,2,4-triazin-6-yl)oxy)-N-ethyl-5-fluoro-N-isopropylbenzamide fumarate] were greater than 15 µM, greater than 940 nM, greater than 1000 nM, 3210 nM and 0.068 nM.
As for `CCN(C(=O)c1cc(F)ccc1Oc1nncnc1N1CCC2(C1)CN([C@H](CCCN(C)[C@@H](C)CC(=O)N(C)C)C(C)C)C2)C(C)C` (single isomer, unassigned) [Compound 185, 2-((5-(2-((R)-6-(((*S)-4-(dimethylamino)-4-oxobutan-2-yl)(methyl)amino)-2-methylhexan-3-yl)-2,6-diazaspiro[3.4]octan-6-yl)-1,2,4-triazin-6-yl)oxy)-N-ethyl-5-fluoro-N-isopropylbenzamide fumarate], the IC50 in experiment [1] worked out at 1.7 µM; in experiment [2] it was 79 nM; in experiment [3] it was 44 nM; in experiment [4] it was 61 nM; in experiment [5] it was 0.2 nM.
Taken in the same sequence, the figures for `CCN(C(=O)c1cc(F)ccc1Oc1nncnc1N1CCC2(C1)CN([C@H](CCCN(C)C[C@@H](C)C(=O)NC)C(C)C)C2)C(C)C` [Compound 195, N-ethyl-5-fluoro-N-isopropyl-2-((5-(2-((R)-2-methyl-6-(methyl((R)-2-methyl-3-(methylamino)-3-oxopropyl)amino)hexan-3-yl)-2,6-diazaspiro[3.4]octan-6-yl)-1,2,4-triazin-6-yl)oxy)benzamide fumarate] were greater than 15 µM, 70 nM, 56 nM, 58 nM and roughly 0.4 nM.
Taken in the same sequence, the figures for `CC(C)[C@@H](CCCN(C)CCC(=O)N(C)C)N1CC2(CCN(c3ncnnc3Oc3ccc(F)cc3C(=O)N(C(C)C)C(C)C)C2)C1` (single isomer, unassigned) [Compound 145, (*R)-2-((5-(2-(6-((3-(dimethylamino)-3-oxopropyl)(methyl)amino)-2-methylhexan-3-yl)-2,6-diazaspiro[3.4]octan-6-yl)-1,2,4-triazin-6-yl)oxy)-5-fluoro-N,N-diisopropylbenzamide fumarate] were greater than 15 µM, 14 nM, 21 nM, 110 nM and 0.07 nM.
Taken in the same sequence, the figures for `COCCN(C)CCC[C@H](C(C)C)N1CC2(CCN(c3ccnnc3Oc3ccc(F)cc3C(=O)N(C(C)C)C(C)C)C2)C1` (single isomer, unassigned) [Compound 88, (*R)-5-fluoro-N,N-isopropyl-2-((4-(2-(6-((2-methoxyethyl)(methyl)amino)-methylhexan-3-yl)-2,6-diazaspiro[3.4]octan-6-yl)pyridazin-3-yl)oxy)benzamide oxalate] were 14 µM, 120 nM, 130 nM, 810 nM and 0.083 nM.
As for `CCN(C(=O)c1cc(F)ccc1Oc1nncnc1N1CCC2(C1)CN([C@H](CCN(C)CCOC)C(C)C)C2)C(C)C` (single isomer, unassigned) [Compound 276, (*R)—N-ethyl-5-fluoro-N-isopropyl-2-((5-(2-(1-((2-methoxyethyl)(methyl)amino)-4-methylpentan-3-yl)-2,6-diazaspiro[3.4]octan-6-yl)-1,2,4-triazin-6-yl)oxy)benzamide], the IC50 in experiment [1] is greater than 15 µM; in experiment [2] it was 240 nM; in experiment [3], 390 nM; in experiment [4], 1610 nM; in experiment [5] it was 0.5 nM.
Taken in the same sequence, the figures for `CC(C)[C@@H](CCCN(C)[C@H](C)CC(N)=O)N1CC2(CCN(c3ncnnc3Oc3ccc(F)cc3C(=O)N(C(C)C)C(C)C)C2)C1` (single isomer, unassigned) [Compound 199, 2-((5-(2-((*R)-6-(((R)-4-amino-4-oxobutan-2-yl)(methyl)amino)-2-methylhexan-3-yl)-2,6-diazaspiro[3.4]octan-6-yl)-1,2,4-triazin-6-yl)oxy)-5-fluoro-N,N-diisopropylbenzamide fumarate] were greater than 15 µM, 460 nM, roughly 260 nM, 1910 nM and 0.13 nM.
Taken in the same sequence, the figures for `COCCN(C)CCC[C@@H](C(C)C)N1CC2(CCN(c3ncnnc3Oc3ccc(F)cc3C(=O)N(C(C)C)C(C)C)C2)C1` (single isomer, unassigned) [Compound 95, (*S)-5-fluoro-N,N-isopropyl-2-((5-(2-(6-((2-methoxyethyl)(methyl)amino)-methylhexan-3-yl)-2,6-diazaspiro[3.4]octan-6-yl)-1,2,4-triazin-6-yl)oxy)benzamide oxalate] were greater than 15 µM, 390 nM, roughly 620 nM, 1620 nM and 4.98 nM.
